From patent US20110105389A1 (priority 2009, published 2011)

Target: T1, human ghrelin receptor (GRLN, growth hormone secretagogue receptor, hGHS-R1a) (Homo sapiens, UniProt Q92847)
T1 construct: purchased PerkinElmer BioSignal #RBHGHSM, lot#1887; host or cells: HEK-293 cells, stably transfected (membranes)
Test: Competitive radioligand binding assay (ghrelin receptor), Method B1
Conditions: not given
Procedure: Multiscreen Harvest plates-GF/C (Millipore, #MAHFC1H60) • 4. […] Bottom seal (Millipore, #MATAH0P00) • 7. […] Binding Buffer: 25 mM Hepes (pH 7.4), 1 mM CaCl2, 5 mM MgCl2. 2.5 mM EDTA, 0.4% BSA
Competition experiments were performed in a 300 μl filtration assay format. • 1. 220 μL of membranes diluted in binding buffer • 2. 40 μL of compound diluted in binding buffer • 3.
Compounds were provided frozen on dry ice at a stock concentration of 10 mM diluted in 100% DMSO and stored at −80° C. until the day of testing. On the test day, compounds were allowed to thaw at rt overnight and then diluted in assay buffer according to the desired test concentrations. Under these conditions, the maximal final DMSO concentration in the assay was 0.1%.
Plates were sealed with TopSeal-A, vortexed gently and incubated at rt for 30 min. The reaction was arrested by filtering samples through Multiscreen Harvest plates (pre-soaked in 0.5% polyethyleneimine) using a Tomtec Harvester, washed 9 times with 500 μL of cold 50 mM Tris-HCl (pH 7.4, 4° C.), and then plates were air-dried in a fumehood for 30 min. A bottom seal was applied to the plates prior to the addition of 25 μL of MicroScint-0 to each well. Plates were than sealed with TopSeal-A and counted for 30 sec per well on a TopCount Microplate Scintillation and Luminescence Counter (PerkinElmer) using a count delay of 60 sec. Results were expressed as counts per minute (cpm).
Data were analyzed by GraphPad Prism (GraphPad Software, San Diego, Calif.) using a variable slope non-linear regression analysis. […] Dmax values were calculated using the following formula: […]

T1 sequence (Q92847 whole entry): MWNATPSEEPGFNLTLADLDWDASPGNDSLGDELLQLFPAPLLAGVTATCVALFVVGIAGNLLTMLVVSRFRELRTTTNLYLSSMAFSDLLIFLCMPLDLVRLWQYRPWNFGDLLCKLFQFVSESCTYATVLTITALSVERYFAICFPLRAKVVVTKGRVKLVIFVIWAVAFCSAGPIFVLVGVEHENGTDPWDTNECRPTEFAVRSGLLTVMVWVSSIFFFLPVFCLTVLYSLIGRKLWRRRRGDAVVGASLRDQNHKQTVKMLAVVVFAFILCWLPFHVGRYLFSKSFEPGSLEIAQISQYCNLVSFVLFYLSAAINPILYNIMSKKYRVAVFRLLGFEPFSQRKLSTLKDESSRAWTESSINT

| SMILES | IC50 | Ki |
| --- | --- | --- |
| CC[C@H](C)[C@@H]1NC/C=C/c2ccccc2CCCNC(=O)[C@@H](Cc2ccccc2)NC(=O)[C@H]([C@H](C)O)N(C)C1=O [Compound 1346] | > 0.5 µM | 0.1 to 0.5 µM |
| CCC(C)[C@@H]1NCCOc2ccccc2CC[C@@H](C)NC(=O)[C@@H](Cc2ccccc2)NC(=O)[C@H](C(C)O)N(C)C1=O (some centres unmarked) [Compound 1342] | 0.001 to 0.01 µM | 0.001 to 0.01 µM |

Same assay, conditions: Ghrelin receptor binding activity, Method B1

| SMILES | IC50 | Ki |
| --- | --- | --- |
| CCCC1CCc2ccccc2OCCNC(C(C)C)C(=O)N(C)C(C(C)O)C(=O)NC(Cc2c[nH]c3ccccc23)C(=O)N1 (centres unmarked) [Compound 1697] | 0.1 to 0.5 µM |  |
| CCC(C)[C@@H]1NCCOc2ccccc2C[C@@H](O)CNC(=O)[C@@H](Cc2ccccc2)NC(=O)[C@H](C(C)O)N(C)C1=O (some centres unmarked) [Compound 1339] | 0.1 to 0.5 µM | 0.1 to 0.5 µM |
| CCC(C)[C@@H]1NCCOc2ccccc2/C=C/CNC(=O)[C@@H](Cc2ccco2)NC(=O)[C@H](C(C)O)N(C)C1=O (some centres unmarked) [Compound 1331] | 0.01 to 0.1 µM | 0.01 to 0.1 µM |
| CCC(C)[C@@H]1NCCOc2ccccc2/C=C/CNC(=O)[C@@H](Cc2ccc(N)cc2)NC(=O)[C@H](C(C)O)N(C)C1=O (some centres unmarked) [Compound 1328] | 0.1 to 0.5 µM | 0.01 to 0.1 µM |
| CC(O)[C@H]1C(=O)N[C@H](Cc2ccc(Cl)cc2)C(=O)NC/C=C/c2ccccc2OCCN[C@@H](C2CC2)C(=O)N1C (some centres unmarked) [Compound 1728] | 0.01 to 0.1 µM |  |
| CC[C@@H]1CCc2ccc(OC)cc2OCCN[C@@H](C(C)C)C(=O)N(C)[C@@H](C(C)O)C(=O)N[C@H](Cc2c[nH]c3ccccc23)C(=O)N1 (some centres unmarked) [Compound 1727] | > 0.5 µM |  |
| CC(C)[C@@H]1NCCOc2cc(F)ccc2CCC(CC(F)(F)F)NC(=O)[C@@H](Cc2c[nH]c3ccccc23)NC(=O)[C@H](C(C)O)N(C)C1=O (some centres unmarked) [Compound 1885] | 0.1 to 0.5 µM |  |
| CC(O)[C@H]1C(=O)N[C@H](Cc2ccccc2)C(=O)N[C@@H](C)CCc2ccccc2OCCN[C@@H](C2CC2)C(=O)N1C (some centres unmarked) [Compound 1345] | 0.1 to 0.5 µM | 0.01 to 0.1 µM |
| CC(C)C1NCCOc2cc(F)ccc2C=CCNC(=O)C(C(C)c2ccccc2)NC(=O)C(C(C)O)N(C)C1=O (centres unmarked) [Compound 1689] | 0.01 to 0.1 µM |  |
| CC[C@@H]1CCc2c(cccc2C(N)=O)OCCN[C@@H](C(C)C)C(=O)N(C)[C@@H](C(C)O)C(=O)N[C@H](Cc2ccccc2)C(=O)N1 (some centres unmarked) [Compound 1864] | > 0.5 µM |  |
| CC(C)[C@@H]1NCCOc2ncccc2CC[C@@H](C)NC(=O)[C@@H](Cc2ccccc2)NC(=O)[C@H](C(C)O)N(C)C1=O (some centres unmarked) [Compound 1906] | 0.01 to 0.1 µM |  |
| CCC(C)[C@@H]1NCCOc2cccnc2CCCNC(=O)[C@@H](Cc2ccccc2)NC(=O)[C@H](C(C)O)N(C)C1=O (some centres unmarked) [Compound 1311] |  | > 0.5 µM |
| CC(O)[C@H]1C(=O)N[C@H](Cc2ccccc2)C(=O)N[C@H](C)CCc2ccc(F)cc2O[C@H](C)CN[C@@H](C2(C)CC2)C(=O)N1C (some centres unmarked) [Compound 1869] | 0.01 to 0.1 µM |  |
| CC[C@@H]1CCc2c(cccc2C(F)(F)F)OCCN[C@@H](C(C)C)C(=O)N(C)[C@@H](C(C)O)C(=O)N[C@H](Cc2ccccc2)C(=O)N1 (some centres unmarked) [Compound 1888] | > 0.5 µM |  |
| CC[C@@H]1CCc2c(C#N)cccc2OCCN[C@@H](C(C)C)C(=O)N(C)[C@@H](C(C)O)C(=O)N[C@H](Cc2c[nH]c3ccccc23)C(=O)N1 (some centres unmarked) [Compound 1896] | 0.1 to 0.5 µM |  |
| CCC1CCc2ccc(C(F)(F)F)cc2OCCNC(C(C)C)C(=O)N(C)C(C(C)O)C(=O)NC(Cc2ccccc2)C(=O)N1 (centres unmarked) [Compound 1846] | 0.1 to 0.5 µM |  |
| CC(C)C1CCc2ccccc2OCCNC(C(C)C)C(=O)N(C)C(C(C)O)C(=O)NC(Cc2ccccc2)C(=O)N1 (centres unmarked) [Compound 1695] | 0.1 to 0.5 µM |  |
| CC[C@@H]1CCc2c(F)cccc2OCCN[C@@H](C(C)C)C(=O)N(C)[C@@H](C(C)O)C(=O)N[C@H](Cc2cccc(F)c2)C(=O)N1 (some centres unmarked) [Compound 1724] | 0.01 to 0.1 µM |  |
| CCC(C)C1NCCOc2ccccc2C=CCNC(=O)C(Cc2ccc(Cl)cc2)NC(=O)C(C(C)OC(C)=O)N(C)C1=O (centres unmarked) [Compound 1842] | 0.1 to 0.5 µM |  |
| CC[C@@H]1CCc2ccc(F)cc2O[C@H](C)CN[C@@H](C2(C)CC2)C(=O)N(C)[C@@H](C(C)O)C(=O)N[C@H](Cc2cccc(F)c2)C(=O)N1 (some centres unmarked) [Compound 1721] | 0.1 to 0.5 µM |  |
| CC(O)[C@H]1C(=O)N[C@H](Cc2ccccc2)C(=O)NC/C=C/c2ccccc2OCCN[C@@H](C2CCCC2)C(=O)N1C (some centres unmarked) [Compound 1320] | 0.01 to 0.1 µM | 0.01 to 0.1 µM |
| CC[C@@H]1CCc2c(cccc2C(F)(F)F)OCCN[C@@H](C(C)C)C(=O)N(C)[C@@H](C(C)O)C(=O)N[C@H](Cc2ccc(F)cc2)C(=O)N1 (some centres unmarked) [Compound 1892] | > 0.5 µM |  |
| CCC(C)[C@@H]1NC[C@H](C)Oc2ccccc2/C=C/CNC(=O)[C@@H](Cc2ccccc2)NC(=O)[C@H](C(C)O)N(C)C1=O (some centres unmarked) [Compound 1314] | 0.1 to 0.5 µM | 0.1 to 0.5 µM |
| CC[C@@H]1CCc2ccc(F)cc2OCCN[C@@H](CC(C)(C)C)C(=O)N(C)[C@@H](C(C)O)C(=O)N[C@H](Cc2c[nH]c3ccccc23)C(=O)N1 (some centres unmarked) [Compound 1764] | > 0.5 µM |  |
| CCC1CCc2ccc(F)cc2OCCNC(C(C)C)C(=O)N(C)C(C(C)OC(C)=O)C(=O)NC(Cc2c[nH]c3ccccc23)C(=O)N1 (centres unmarked) [Compound 1851] | > 0.5 µM |  |
| CCC(C)[C@@H]1N[C@@H](C)COc2ccccc2CCCNC(=O)[C@@H](Cc2ccccc2)NC(=O)[C@H](C(C)O)N(C)C1=O (some centres unmarked) [Compound 1348] | > 0.5 µM | 0.1 to 0.5 µM |
| CC(O)[C@H]1C(=O)N[C@H](Cc2ccccc2)C(=O)N[C@H](C)CCc2cccnc2OCCN[C@@H](C2(C)CC2)C(=O)N1C (some centres unmarked) [Compound 1907] | 0.01 to 0.1 µM |  |
| CC(O)[C@H]1C(=O)N[C@H](Cc2ccccc2)C(=O)NC/C=C/c2ccccc2OCCN[C@@H](CO)C(=O)N1C (some centres unmarked) [Compound 1305] |  | > 0.5 µM |
| CC(O)[C@H]1C(=O)N[C@H](Cc2ccc(Cl)cc2)C(=O)NC/C=C/c2ccccc2OCCN[C@@H](CC(C)(C)C)C(=O)N1C (some centres unmarked) [Compound 1733] | 0.1 to 0.5 µM |  |

Continued, values first:

| IC50 | Ki | SMILES |
| --- | --- | --- |
| 0.01 to 0.1 µM |  | CC(O)[C@H]1C(=O)N[C@H](Cc2ccc(Cl)cc2)C(=O)N[C@H](C)CCc2ccc(F)cc2O[C@H](C)CN[C@@H](C2(C)CC2)C(=O)N1C (some centres unmarked) [Compound 1871] |
| 0.01 to 0.1 µM |  | CC[C@@H]1CCc2c(F)cccc2OCCN[C@@H](C(C)C)C(=O)N(C)[C@@H](C(C)O)C(=O)N[C@H](Cc2ccccc2)C(=O)N1 (some centres unmarked) [Compound 1722] |
| 0.1 to 0.5 µM |  | CC(C)C[C@@H]1NCCOc2ccccc2/C=C/CNC(=O)[C@@H](Cc2ccc(Cl)cc2)NC(=O)[C@H](C(C)O)N(C)C1=O (some centres unmarked) [Compound 1731] |
| > 0.5 µM |  | CC[C@@H]1CCc2c(NS(C)(=O)=O)cccc2OCCN[C@@H](C(C)C)C(=O)N(C)[C@@H](C(C)O)C(=O)N[C@H](Cc2ccccc2)C(=O)N1 (some centres unmarked) [Compound 1866] |
| 0.01 to 0.1 µM |  | CCC(C)C1NCCOc2ccccc2C=CCNC(=O)C(Cc2ccc(C)cc2)NC(=O)C(C(C)O)N(C)C1=O (centres unmarked) [Compound 1736] |
| 0.01 to 0.1 µM |  | CC[C@@H]1C#Cc2ccc(Cl)cc2OCCN[C@@H](C(C)C)C(=O)N(C)[C@@H](C(C)O)C(=O)N[C@H](Cc2c[nH]c3ccccc23)C(=O)N1 (some centres unmarked) [Compound 1709] |
| > 0.5 µM |  | CCCC1CCc2ccccc2OCCNC(C(C)C)C(=O)N(C)C(C(C)O)C(=O)NC(Cc2ccccc2)C(=O)N1 (centres unmarked) [Compound 1694] |
| > 0.5 µM |  | CC(=O)OC(C)C1C(=O)NC(Cc2ccccc2)C(=O)NCC=Cc2ccccc2OCCNC(C(C)C)C(=O)N1C (centres unmarked) [Compound 1841] |
| 0.01 to 0.1 µM | 0.01 to 0.1 µM | CCC(C)[C@@H]1NC[C@@H](C)Oc2ccccc2/C=C/CNC(=O)[C@@H](Cc2ccccc2)NC(=O)[C@H](C(C)O)N(C)C1=O (some centres unmarked) [Compound 1313] |
|  | 0.01 to 0.1 µM | CCC(C)[C@@H]1NCCOc2ccccc2CCC(C(F)(F)F)NC(=O)[C@@H](Cc2ccccc2)NC(=O)[C@H](C(C)O)N(C)C1=O (some centres unmarked) [Compound 1349] |
| 0.01 to 0.1 µM |  | CC[C@@H]1CCc2ccccc2O[C@H](C)CN[C@@H](C2(C)CC2)C(=O)N(C)[C@@H](C(C)O)C(=O)N[C@H](Cc2c[nH]c3ccccc23)C(=O)N1 (some centres unmarked) [Compound 1756] |
| > 0.5 µM |  | CCCC1CCc2ccccc2OCCNC(C(C)C)C(=O)N(C)C(C(C)O)C(=O)NC(Cc2cccc(F)c2)C(=O)N1 (centres unmarked) [Compound 1696] |
| > 0.5 µM |  | CC(O)[C@H]1C(=O)N[C@H](Cc2ccc(Cl)cc2)C(=O)N[C@H](C)CCc2ccccc2OCCN[C@@H](C2CCCCC2)C(=O)N1C (some centres unmarked) [Compound 1744] |
| > 0.5 µM |  | CC(O)[C@H]1C(=O)N[C@H](Cc2ccc(Cl)cc2)C(=O)N[C@@H](C)CCc2ccccc2O[C@H](C)CN[C@@H](C2CC2)C(=O)N1C (some centres unmarked) [Compound 1741] |
|  | 0.01 to 0.1 µM | CCC(C)[C@@H]1NCCOc2cc(F)ccc2CC[C@H](C)NC(=O)[C@@H](Cc2ccccc2)NC(=O)[C@H](C(C)O)N(C)C1=O (some centres unmarked) [Compound 1344] |
| 0.01 to 0.1 µM |  | CCC(C)C1NCCOc2ccccc2C=CCNC(=O)C(Cc2ccc(OC)cc2)NC(=O)C(C(C)O)N(C)C1=O (centres unmarked) [Compound 1735] |
|  | 0.1 to 0.5 µM | CCC(C)[C@@H]1NC[C@@H](C)Oc2ccccc2CCCNC(=O)[C@@H](Cc2ccccc2)NC(=O)[C@H](C(C)O)N(C)C1=O (some centres unmarked) [Compound 1301] |
| 0.001 to 0.01 µM |  | CC(O)[C@H]1C(=O)N[C@H](Cc2ccc3ccccc3c2)C(=O)NCCCc2cccnc2OCCN[C@@H](C2(C)CC2)C(=O)N1C (some centres unmarked) [Compound 1880] |
